Data on eight compounds can be found in US6414147B1, “2-amino-9-alkylpurines: GABA brain receptor ligands” (Neurogen Corporation, priority 1998, dated 2002).

By melting point is commonly meant the temperature of the solid-liquid transition.

`CCCCn1cnc2c(OCCOC)nc(Nc3cnc4ccccc4c3)nc21` [compound 88, 2-[(Quinolin-3-yl)amino]-6-(2-methoxyethoxy)-9-butyl-9H-purine] registered a melting point of 161 to 163 °C.

In turn, `CCCCn1cnc2c(OCC(C)C)nc(Nc3cnc4ccccc4c3)nc21` [compound 89, 2-[(Quinolin-3-yl)amino]-6-(2-methylprop-1-oxy)-9-butyl-9H-purine] yielded a melting point of 68 to 71 °C.

`C=C(C)COc1nc(Nc2cnc3ccccc3c2)nc2c1ncn2CCCC` [compound 91, 2-[(Quinolin-3-yl)amino]-6-(2-methyl-2-propen-1-oxy)-9-butyl-9H-purine] gave a melting point of 106 to 108 °C.

`C=CCOc1nc(Nc2cnc3ccccc3c2)nc2c1ncn2CCCC` [compound 92, 2-[(Quinolin-3-yl)amino]-6-(2-propen-1-oxy)-9-butyl-9H-purine]: the melting point was in the range of 188 to 192 °C.

For the compound `CCCCn1cnc2c(OCCF)nc(Nc3cnc4ccccc4c3)nc21` [compound 93, 2-[(Quinolin-3-yl)amino]-6-(2-fluoroethoxy)-9-butyl-9H-purine], the melting point fell in the range of 181 to 183 °C.

Regarding `CCCCn1cnc2c(OC)nc(Nc3ccc4c(c3)OCO4)nc21` [compound 95, 2-[(3,4-Methylenedioxyphenyl)amino]-6-methoxy-9-butyl-9H-purine], the melting point was in the range of 160 to 161 °C.

`CCCCn1cnc2c(OCC)nc(Nc3ccc4ncsc4c3)nc21` [compound 96, 2-[(Benzothiazol-6-yl)amino]-6-ethoxy-9-butyl-9H-purine] yielded a melting point of 150 to 152 °C.

The compound `CCCCn1cnc2c(OCC)nc(NCc3ccc(OC)cc3)nc21` [compound 97, 2-[(4-Methoxybenzyl)amino]-6-ethoxy-9-butyl-9H-purine] gave a melting point of 129 to 130 °C.
